Here are results for one compound from US12564555B2, “Continuous processes for manufacturing impregnated porous carriers and for manufacturing pharmaceuticals containing impregnated porous carriers” (Rutgers, The State University of New Jersey, priority 2019, dated 2026).

A short description of the data set: Dissolution test, rotating paddle method, DI water (Example 2). It counts as physicochemical. The conditions noted are these: 900 ml DI water, 50 rpm, 37° C., FIG. 4. The protocol:
Dissolution Behavior: As part of this study, dissolution tests were performed on both pure IBU and impregnated IBU to check the effect of the impregnation process on the dissolution rate and extent of IBU. Dissolution was carried out in 900 ml of DI water at 50 rpm and 37° C. using the rotating paddle method. Samples were withdrawn at predetermined time intervals (every 3 minutes) for 60 min using a peristaltic pump attached to the dissolution device. The amount of released IBU was quantified spectrophotometrically.

Molecules are shown by their SMILES.

Take `CC(C)Cc1ccc(C(C)C(=O)O)cc1` (stereo not shown) [pure crystal IBU, Ibuprofen]: the “IBU released within 5 minutes” value was “less than 10%”.
